From publication PMC12811997 (Chemmedchem, 2025)
In brackets after ≈: the same amount, converted by molar mass. Like-named read-outs stand apart in the source and are kept apart here.

What was measured:
[1] = biological target: T1, SARS‐CoV‐2 RdRp complex (nsp12, nsp7, nsp8) (Severe acute respiratory syndrome coronavirus 2, UniProt P0DTD1); set-up: method as in PMID 39140451; conditions: at 10 μM concentration of screened compound; ref [10]; cited from earlier work
in vitro = conditions: human
Protocol: (§1) Cytotoxicity was evaluated by incubating the same two‐fold serial dilutions of each compound with Calu‐3 cells as above but without the virus. Following 3 days of incubation at 37 °C in 5% CO2, the cell viability was determined by the addition of XTT solution as above. The compound cytotoxic concentrations resulting in a 50% reduction of absorbance (CC50) were calculated from plots of the percentage of absorbance versus log10 of drug concentration as above.

[2] = Chemical stability in aqueous solution; assay type: physicochemical
[3] = biological target: T1, SARS‐CoV‐2 RdRp complex (nsp12, nsp7, nsp8); experiment: biochemical; assay type: biochemical; conditions: AUC with compound / AUC of noninhibited reaction
SARS‐CoV‐2 = experiment: microbe, parasite or virus in culture; assay type: cell-based; conditions: Calu‐3 cells infected with SARS‐CoV‐2, concentration required to reduce viral cytopathic effect by 50%, read-out: EC50
Calu‐3 cells = conditions: read-out: CC50 ± SE, concentration required to reduce cell viability by 50%
Protocol: as §1

O=C(Nc1cc(Cl)cc(Cl)c1)Nc1nc2ccc(C(F)(F)F)cc2[nH]1 [Compound 4]
RA (residual activity of RdRp) [1]: 29 ± 2%

FC(F)(F)c1ccc2nc(-c3nc4cc(Cl)c(Cl)cc4[nH]3)[nH]c2c1 [Compound 2]
RA (residual activity of RdRp) [1]: 43 ± 6%

O=C(Nc1cc(Cl)cc(Cl)c1)Nc1ccc(CN2CCOC(=O)C2)c(C(F)(F)F)c1 [Compound 64, 1‐(3,5‐Dichlorophenyl)‐3‐(4‐((2‐Oxomorpholino)Methyl)‐3‐(Trifluoromethyl)Phenyl)Urea]
CC50 at 3 days (in vitro): 38 ± 8.2 µM
solubility kinetic (Kinetic solubility; kinetic from dmso stock): 21 ± 2 µM (≈ 9.71 µg/mL)
increase in kinetic solubility compared with compound 39 (Kinetic solubility; relative to compound 39): 5 fold
chemical stability [2]: chemically unstable and underwent rapid hydrolysis in aqueous solution
remaining activity at 10 µM ([3]; read-out: RA ± SD (residual activity of RdRp), at 10 μM concentration of screened compounds): 39 ± 12%
EC50 (SARS‐CoV‐2; Severe acute respiratory syndrome coronavirus 2): > 38 µM

Ethyl 1‐(4‐(3‐(3,5‐Dichlorophenyl)Ureido)‐2‐(Trifluoromethyl)Benzyl)Piperidine‐4‐Carboxylate Hydrochloride [Compound 67]
CC50 (Calu‐3 cells): 9 ± 0.38 µM
RA ± SD (residual activity of RdRp) ([3]; at 10 μM concentration of screened compounds): 51 ± 11%
EC50 (SARS‐CoV‐2): > 9 µM
